In patent US20240287138A1, “CYCLIC PEPTIDES FOR INHIBITING TNF RECEPTOR 1 ACTIVITY” (Merck Sharp & Dohme LLC, priority 2023, published 2024) one finds IC50 and Kd data, which are given here for five molecules.

For orientation: IC50 means the concentration at which inhibition is half-maximal.

For test [1], the target named is T1, TNFα-induced NF-κB signal transduction pathway (TNFR1 signaling) in THP-1 cells (Homo sapiens, UniProt P19438).
T1 sequence (P19438 30-455): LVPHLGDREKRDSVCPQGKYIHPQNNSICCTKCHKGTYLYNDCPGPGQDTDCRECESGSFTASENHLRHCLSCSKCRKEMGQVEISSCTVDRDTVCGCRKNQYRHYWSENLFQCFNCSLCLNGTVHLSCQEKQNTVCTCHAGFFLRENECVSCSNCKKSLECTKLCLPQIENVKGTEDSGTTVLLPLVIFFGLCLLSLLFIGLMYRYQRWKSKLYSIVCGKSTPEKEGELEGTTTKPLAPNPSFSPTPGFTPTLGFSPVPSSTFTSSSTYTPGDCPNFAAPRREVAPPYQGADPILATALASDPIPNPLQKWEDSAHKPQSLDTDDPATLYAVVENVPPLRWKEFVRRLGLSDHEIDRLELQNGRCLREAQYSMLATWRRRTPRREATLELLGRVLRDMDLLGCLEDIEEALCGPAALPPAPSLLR
Nature of the test: THP-1 Lucia NF-κB reporter cell assay, inhibition of TNFα-induced NF-κB signaling. The format is cell-based. The following applies: THP-1 NF-κB Lucia reporter cells, 10 ng/mL TNFα, 16-18 h, secreted luciferase; read-out: THP-1 IC50. In short, it runs like this:
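Inhibition of TNFR1-driven NF-κB activation was measured as luminescence of secreted reporter luciferase following overnight (16-18 h) stimulation with 10 ng/mL TNFα.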

For test [2], the target named is T2, human soluble TNFR1 (sTNFR1) (Homo sapiens, UniProt P19438).
T2 construct: made in house; host or cells: Sf21 (baculovirus)
T2 sequence (P19438 with tags, fused parts or gaps): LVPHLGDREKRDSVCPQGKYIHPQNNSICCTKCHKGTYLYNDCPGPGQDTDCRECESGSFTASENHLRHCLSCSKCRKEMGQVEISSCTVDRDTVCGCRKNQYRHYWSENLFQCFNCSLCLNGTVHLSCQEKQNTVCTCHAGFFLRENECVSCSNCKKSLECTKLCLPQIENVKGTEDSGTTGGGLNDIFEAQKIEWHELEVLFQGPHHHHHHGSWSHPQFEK
Kind of test: Human sTNFR1-peptide displacement assay (LanthaScreen Eu TR-FRET binding assay). In short, it runs like this: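 Readout is the 665/615 nm TR-FRET ratio (Eu anti-His donor, streptavidin-Alexa647 acceptor), normalized to DMSO and saturating displacer, fit by Morrison-based five-parameter logistic for Kd^app. His-tagged sTNFR1 (1-211) prebound to 100 nM biotinylated peptide SEQ ID NO.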
Background: In TR-FRET formats the signal depends on donor and acceptor labels being close together.

Where two headings read alike, the source gives them in different places. Numbered stars: 1 amine (or outer) side, 2 acyl side, 3 side chain; on linkers, the order of the positions; unused ones are H or OH. Bridge positions count the residues as written; N and C are the ends. Square brackets hold non-standard residues; d marks the D form. Peptide text beside a SMILES is read from it. * marks the point of attachment. Trp(βS-Me,7-OMe) = COc1cccc2c([C@H](C)[C@H](N)C(=O)O)c[nH]c12; X56 = Cc1cccc2c([C@H](C)[C@H](N[*:1])C(=O)[*:2])c[nH]c12; Phe(4-SO2NH2) = N[C@@H](Cc1ccc(S(N)(=O)=O)cc1)C(=O)O; Trp(7-CN) = N#Cc1cccc2c(C[C@H](N)C(=O)O)c[nH]c12; Trp(7-Cl) = N[C@@H](Cc1c[nH]c2c(Cl)cccc12)C(=O)O; Phe(4-CONH2) = NC(=O)c1ccc(C[C@H](N)C(=O)O)cc1; Phe(4-COOH) = N[C@@H](Cc1ccc(C(=O)O)cc1)C(=O)O; Trp(7-aza) = N[C@@H](Cc1c[nH]c2ncccc12)C(=O)O; Phe(4-CH2NH2) = NCc1ccc(C[C@H](N)C(=O)O)cc1; Asn(3S-OH) = NC(=O)[C@@H](O)[C@H](N)C(=O)O; Pip(5R-OH) = O=C(O)[C@@H]1CC[C@@H](O)CN1; X1 = O=C([C@@H]1CC[C@H](N[*:1])C1)[*:2]; Lys(Me2) = CN(C)CCCC[C@H](N)C(=O)O; 4Pal = N[C@@H](Cc1ccncc1)C(=O)O; NMeE = CN[C@@H](CCC(=O)O)C(=O)O; dHyp = O=C(O)[C@H]1C[C@H](O)CN1; X39 = C[C@H](C(=O)[*:1])[*:2]; Pip = O=C(O)[C@@H]1CCCCN1; αMeS = C[C@](N)(CO)C(=O)O; Carboxymethyl = O=C(O)C*; Nle = CCCC[C@H](N)C(=O)O; Sar = CNCC(=O)O

On to `CCCC[C@@H]1NC(=O)[C@@H]2CC[C@@H](C2)NC(=O)[C@H]([C@@H](C)c2c[nH]c3c(OC)cccc23)NC(=O)CN(C)C(=O)[C@H](Cc2ccc(C(=O)O)cc2)NC(=O)[C@H](Cc2ccc(C(N)=O)cc2)NC(=O)[C@](C)(CO)NC(=O)[C@H](Cc2c[nH]c3c(C#N)cccc23)NC(=O)[C@H](Cc2ccncc2)NC(=O)[C@H]([C@H](O)C(N)=O)NC(=O)[C@H]2C[C@H](O)CN2C(=O)[C@H](Cc2c[nH]c3ccccc23)NC(=O)[C@@H]2CC[C@@H](O)CN2C(=O)[C@H](Cc2ccncc2)NC1=O` [SEQ ID NO. 25] (cyclo([4Pal][Trp(7-CN)][αMeS][Phe(4-CONH2)][Phe(4-COOH)][Sar][Trp(βS-Me,7-OMe)][X1][Nle][4Pal][Pip(5R-OH)]W[dHyp][Asn(3S-OH)])), for which the 50% inhibitory concentration (IC50) in test [1] turned out to be 0.8 nM. Also, the Kd in test [2] was determined as 0.04 nM.

On to `CCCC[C@@H]1NC(=O)CSC[C@@H](C(N)=O)NC(=O)[C@H]([C@@H](C)c2c[nH]c3c(C)cccc23)NC(=O)CN(C)C(=O)[C@H](Cc2ccc(O)cc2)NC(=O)[C@H](Cc2ccc(C(=O)O)cc2)NC(=O)[C@](C)(CO)NC(=O)[C@H](Cc2c[nH]c3c(Cl)cccc23)NC(=O)[C@H](Cc2ccncc2)NC(=O)[C@H](CC(N)=O)NC(=O)[C@H](CCC(=O)O)N(C)C(=O)[C@H](Cc2c[nH]c3ccccc23)NC(=O)[C@@H]2CCCCN2C(=O)[C@H](Cc2ccncc2)NC1=O` [SEQ ID NO. 208] ({CH2CO}-[Nle][4Pal][Pip]W[NMeE]N[4Pal][Trp(7-Cl)][αMeS][Phe(4-COOH)]Y[Sar][X56]C-NH2; thioether N-14), for which the half-maximal inhibitory concentration (IC50) is 4 nM in test [1] and 1.31 nM in test [2].

On to `CCCC[C@@H]1NC(=O)[C@@H]2CC[C@@H](C2)NC(=O)[C@H]([C@@H](C)c2c[nH]c3c(OC)cccc23)NC(=O)CN(C)C(=O)[C@H](Cc2ccc(OCC(=O)O)cc2)NC(=O)[C@H](Cc2ccc(S(N)(=O)=O)cc2)NC(=O)[C@](C)(CO)NC(=O)[C@H](Cc2c[nH]c3c(C#N)cccc23)NC(=O)[C@H](Cc2ccc(OCC(=O)O)cc2)NC(=O)[C@H](CC(N)=O)NC(=O)[C@H]2C[C@H](O)CN2C(=O)[C@H](Cc2c[nH]c3ccccc23)NC(=O)[C@@H]2CC[C@@H](O)CN2C(=O)[C@H](Cc2ccncc2)NC1=O` [SEQ ID NO. 135] (cyclo([4Pal][Pip(5R-OH)]W[dHyp]NY(Carboxymethyl)[Trp(7-CN)][αMeS][Phe(4-SO2NH2)]Y(Carboxymethyl)[Sar][Trp(βS-Me,7-OMe)][X1][Nle])), for which the IC50 in test [1] stood at 0.4 nM. In test [2], this molecule had a Kd of 0.07 nM.

Turning to `CCCC[C@@H]1NC(=O)[C@@H](C)SC[C@@H](C(N)=O)NC(=O)[C@H]([C@@H](C)c2c[nH]c3c(OC)cccc23)NC(=O)CN(C)C(=O)[C@H](Cc2ccc(O)cc2)NC(=O)[C@H](Cc2ccc(C(N)=O)cc2)NC(=O)[C@](C)(CO)NC(=O)[C@H](Cc2c[nH]c3c(Cl)cccc23)NC(=O)[C@H](Cc2ccncc2)NC(=O)[C@H](CC(N)=O)NC(=O)[C@H](CCC(=O)O)N(C)C(=O)[C@H](Cc2c[nH]c3ncccc23)NC(=O)[C@H](CO)NC(=O)[C@H](Cc2ccc(CN)cc2)NC1=O` [SEQ ID NO. 250] ([Nle][Phe(4-CH2NH2)]S[Trp(7-aza)][NMeE]N[4Pal][Trp(7-Cl)][αMeS][Phe(4-CONH2)]Y[Sar][Trp(βS-Me,7-OMe)]C-NH2; linker N-14 via X39), the IC50 in test [1] was 2.4 nM; in test [2] (displacement of biotinylated peptide SEQ ID NO. 1 from sTNFR1, weaker binders, 10 pts titration, 4-parameter logistic model, read-out: TR-FRET, IC50), 0.27 nM. Besides, in test [2] (displacement of biotinylated peptide SEQ ID NO. 1 from sTNFR1, 20 point titration, 5-parameter fit based on Morrison equation (tight binding), read-out: TR-FRET Kd^app), the Kd was 0.17 nM.

As for `COc1cccc2c([C@H](C)[C@@H]3NC(=O)CN(C)C(=O)[C@H](Cc4ccc(O)cc4)NC(=O)[C@H](Cc4ccc(C(N)=O)cc4)NC(=O)[C@](C)(CO)NC(=O)[C@H](Cc4c[nH]c5c(Cl)cccc45)NC(=O)[C@H](Cc4ccncc4)NC(=O)[C@H](CC(N)=O)NC(=O)[C@H](CCC(=O)O)N(C)C(=O)[C@H](Cc4c[nH]c5ccccc45)NC(=O)[C@@H]4CC[C@@H](O)CN4C(=O)[C@H](Cc4ccncc4)NC(=O)[C@H](CCCCN(C)C)NC(=O)[C@@H]4CC[C@@H](C4)NC3=O)c[nH]c12` [SEQ ID NO. 238] (cyclo([4Pal][Trp(7-Cl)][αMeS][Phe(4-CONH2)]Y[Sar][Trp(βS-Me,7-OMe)][X1][Lys(Me2)][4Pal][Pip(5R-OH)]W[NMeE]N)), the concentration for half-maximal inhibition (IC50) in test [1] was 0.7 nM. Also, in test [2], the Kd came to 0.12 nM.
